The text below walks through data of ChEMBL document CHEMBL3351452, “Chemical synthesis, cytotoxicity, selectivity and bioavailability of 5α-androstane-3α,17β-diol derivatives” (Bioorg Med Chem, 2014).

One data set relates to HL-60. The experiment in a line: Antiproliferative activity against human HL-60 cells assessed as reduction in cell growth after 24 hrs by MTS assay. The note with it: HL-60, 24 h. It is filed as functional, cell-based. Background: Tetrazolium dyes change colour on reduction, which living cells bring about.
For another data set, the system named is LNCaP. The experiment in a line: Antiproliferative activity against human LNCAP cells assessed as reduction in cell growth after 24 hrs by MTS assay. It is filed as functional, cell-based.
Data set [1] can be described thus: Cytotoxicity against mouse WEHI13 cells assessed as cell proliferation after 48 hrs by MTT assay. It is filed as cell-based. The conditions noted are these: WEHI13, 48 h.
Data set [2] can be described thus: Plasma concentration in Sprague-Dawley rat at 2.3 mg/kg, sc measured at 3 hrs by LC/MS/MS analysis. It is filed as ADME, organism-based. Details: dose 2.3 mg/kg, route subcutaneous.
Data set [3] can be described thus: Plasma concentration in Sprague-Dawley rat at 2.3 mg/kg, sc measured at 12 hrs by LC/MS/MS analysis. It is filed as ADME, organism-based. Also noted: dose 2.3 mg/kg, route subcutaneous.
A further data set deals with T47D. Put plainly: Antiproliferative activity against human T47D cells assessed as reduction in cell growth after 24 hrs by MTS assay. It is filed as functional, cell-based.
For another data set, the system named is MCF7. Put plainly: Antiproliferative activity against human MCF7 cells assessed as reduction in cell growth after 24 hrs by MTS assay. It is filed as functional, cell-based. The conditions noted are these: MCF7, 24 h.

Molecules are shown by their SMILES. pIC50: −log10 of the molar value.

In the case of `C[C@]12C[C@H](N3CCN(C(=O)[C@@H]4CCCN4C(=O)c4ccc5ccccc5c4)CC3)[C@@H](O)C[C@@H]1CC[C@@H]1[C@@H]2CC[C@]2(C)[C@@H](O)CC[C@@H]12`, the pIC50 (commonly the negative decadic logarithm of the IC50, by convention in mol/L) in the data set on HL-60 was 6.40; in the data set on LNCaP, 5.80; in data set [1] it was below 5.00; in the data set on T47D, 6.40; in the data set with MCF7, 6.30. In data set [2], this compound returned a concentration at 3 h of 64.8 ng/mL. In data set [3], this compound gave a concentration at 12 h of 8.8 ng/mL.

Take `C#C[C@]1(O)CC[C@H]2[C@@H]3CC[C@H]4C[C@H](O)[C@@H](N5CCN(C(=O)[C@@H]6CCCN6C(=O)c6ccc7ccccc7c6)CC5)C[C@]4(C)[C@H]3CC[C@@]21C`: the negative-log IC50 (pIC50) is 5.72 in the data set on HL-60; 5.35 in the data set with LNCaP; 5.77 in data set [1]; 6.52 in the data set with T47D; 6.52 in the data set on MCF7. The compound also displayed a concentration at 3 h in data set [2] of 185 ng/mL. The concentration at 12 h in data set [3] came to 50.2 ng/mL.

With `C[C@]12C[C@H](N3CCN(C(=O)[C@@H]4CCCN4C(=O)c4ccc5ccccc5n4)CC3)[C@@H](O)C[C@@H]1CC[C@@H]1[C@@H]2CC[C@]2(C)[C@@H](O)CC[C@@H]12`, the pIC50 in the data set with HL-60 is 5.80; with LNCaP, 7.40; in the data set on T47D, 7.00; with MCF7, 7.00. The concentration at 3 h in data set [2] was determined as 163 ng/mL. This compound also showed a concentration at 12 h in data set [3] of 3.1 ng/mL.

Take `C[C@]12C[C@H](N3CCN(C(=O)[C@@H]4CCCN4C(=O)c4ccc5ncccc5c4)CC3)[C@@H](O)C[C@@H]1CC[C@@H]1[C@@H]2CC[C@]2(C)[C@@H](O)CC[C@@H]12`: the pIC50 in the data set with HL-60 was 5.33; in the data set on LNCaP it was below 5.00; with T47D, 5.15; with MCF7, 5.31. Moreover, the concentration at 3 h in data set [2] is 194 ng/mL. The compound further showed a concentration at 12 h in data set [3] of 1.3 ng/mL.

For the compound `C[C@]12C[C@H](N3CCN(C(=O)[C@@H]4CCCN4C(=O)c4cc5ccccc5cn4)CC3)[C@@H](O)C[C@@H]1CC[C@@H]1[C@@H]2CC[C@]2(C)[C@@H](O)CC[C@@H]12`, the pIC50 in the data set on HL-60 is 5.85; with LNCaP it was 7.15; in data set [1], 5.52; with T47D it was 6.70; in the data set with MCF7, 7.00. This compound gave a concentration at 3 h in data set [2] of 123 ng/mL. Also, the concentration at 12 h in data set [3] stood at 2.7 ng/mL.

Turning to `C[C@]12C[C@H](N3CCN(C(=O)[C@@H]4CCCN4C(=O)c4ccc5ccccc5c4)CC3)[C@@H](O)C[C@@H]1CC[C@@H]1[C@@H]2CC[C@@]2(C)[C@H]1CC[C@]2(C)O`, the negative-log IC50 (pIC50) with HL-60 is 5.33; in the data set on LNCaP, below 5.00; with T47D, 5.70; in the data set with MCF7, 5.92. In data set [2], the concentration at 3 h was determined as 122 ng/mL. In addition, the concentration at 12 h in data set [3] was 32 ng/mL.

On to `CO[C@H]1CC[C@H]2[C@@H]3CC[C@H]4C[C@H](O)[C@@H](N5CCN(C(=O)[C@@H]6CCCN6C(=O)c6ccc7ccccc7c6)CC5)C[C@]4(C)[C@H]3CC[C@]12C`, for which the pIC50 was 5.35 in the data set on HL-60, 5.15 with LNCaP, 5.30 in the data set on T47D and 5.35 with MCF7. The compound also returned a concentration at 3 h in data set [2] of 33.3 ng/mL. The concentration at 12 h in data set [3] was determined as 7.6 ng/mL.

With `C[C@]12C[C@H](N3CCN(C(=O)[C@@H]4CCCN4C(=O)c4cccc5ccccc45)CC3)[C@@H](O)C[C@@H]1CC[C@@H]1[C@@H]2CC[C@]2(C)[C@@H](O)CC[C@@H]12`, the pIC50 is 5.43 in the data set on HL-60, 6.52 in the data set with LNCaP, 5.30 in the data set with T47D and 5.32 with MCF7.

On to `C#C[C@]1(O)CC[C@H]2[C@@H]3CC[C@H]4C[C@H](O)[C@@H](N5CCN(C(=O)[C@@H]6CCCN6C(=O)c6cccc7ccccc67)CC5)C[C@]4(C)[C@H]3CC[C@@]21C`, for which the pIC50 is 5.15 with HL-60, 4.92 in the data set on LNCaP, 5.10 in the data set with T47D and 5.64 in the data set with MCF7.

`C[C@]12C[C@H](N3CCN(C(=O)[C@@H]4CCCN4C(=O)c4cccc5ccccc45)CC3)[C@@H](O)C[C@@H]1CC[C@@H]1[C@@H]2CC[C@]2(C)C(=O)CC[C@@H]12`: the pIC50 in the data set on HL-60 was 5.07; in the data set on LNCaP it was 5.00; in the data set on T47D, 5.15; in the data set on MCF7 it was 5.10.

On to `C[C@]12C[C@H](N3CCN(C(=O)[C@@H]4CCCN4C(=O)c4cnc5ccccc5c4)CC3)[C@@H](O)C[C@@H]1CC[C@@H]1[C@@H]2CC[C@]2(C)[C@@H](O)CC[C@@H]12`, for which the pIC50 with HL-60 is 5.40; in the data set on LNCaP, below 5.00; in the data set with T47D, 5.15; with MCF7, 5.92. This compound also displayed a concentration at 3 h in data set [2] of 163 ng/mL. The compound further showed a concentration at 12 h in data set [3] of 2.3 ng/mL.

For `C[C@]12C[C@H](N3CCN(C(=O)[C@@H]4CCCN4C(=O)c4cc5ccccc5[n+]([O-])c4)CC3)[C@@H](O)C[C@@H]1CC[C@@H]1[C@@H]2CC[C@]2(C)[C@@H](O)CC[C@@H]12`, the pIC50 was 6.10 in the data set on HL-60, below 5.00 in the data set with LNCaP, 6.00 with T47D and 6.05 with MCF7. Besides, the concentration at 3 h in data set [2] is 158 ng/mL. In data set [3], the concentration at 12 h stood at 2.9 ng/mL.

Regarding `C[C@]12C[C@H](N3CCN(C(=O)[C@@H]4CCCN4C(=O)c4ccc5ccccc5n4)CC3)[C@@H](O)C[C@@H]1CC[C@@H]1[C@@H]2CC[C@]2(C)C(=O)CC[C@@H]12`, the pIC50 with HL-60 is 6.22; in the data set on LNCaP, 6.10; in the data set on T47D, 6.15; in the data set with MCF7, 6.00. In addition, the concentration at 3 h in data set [2] is 188 ng/mL. In data set [3], this compound came in with a concentration at 12 h of 0.3 ng/mL.

For the compound `C[C@]12C[C@H](N3CCN(C(=O)[C@@H]4CCCN4C(=O)C4CCCCC4)CC3)[C@@H](O)C[C@@H]1CC[C@@H]1[C@@H]2CC[C@]2(C)[C@@H](O)CC[C@@H]12`, the pIC50 in data set [1] was 5.57.

As for `C[C@]12CC[C@@H](O)C[C@@H]1CC[C@@H]1[C@@H]2CC[C@]2(C)[C@@H](O)CC[C@@H]12` [ANDROSTANDIOL], the pIC50 in data set [1] is below 5.00.

As to `COc1cccc2c1C(=O)c1c(O)c3c(c(O)c1C2=O)C[C@@](O)(C(=O)CO)C[C@@H]3O[C@H]1C[C@H](N)[C@H](O)[C@H](C)O1` [DOXORUBICIN], the pIC50 was 6.15 in the data set on HL-60; 6.70 with LNCaP; 7.70 in data set [1]; 6.15 with T47D; below 5.00 in the data set on MCF7.
